For 66 molecules, IC50 results are on record in patent US8981092B2, “Substituted 3,4-dihydro-2H-pyrrolo[1,2-a]pyrazin-1-ones as modulators of protein kinase activity” (Nerviano Medical Sciences S.r.l., priority 2008, dated 2015).

Full-length human PIM-1, sequence (P11309 whole entry): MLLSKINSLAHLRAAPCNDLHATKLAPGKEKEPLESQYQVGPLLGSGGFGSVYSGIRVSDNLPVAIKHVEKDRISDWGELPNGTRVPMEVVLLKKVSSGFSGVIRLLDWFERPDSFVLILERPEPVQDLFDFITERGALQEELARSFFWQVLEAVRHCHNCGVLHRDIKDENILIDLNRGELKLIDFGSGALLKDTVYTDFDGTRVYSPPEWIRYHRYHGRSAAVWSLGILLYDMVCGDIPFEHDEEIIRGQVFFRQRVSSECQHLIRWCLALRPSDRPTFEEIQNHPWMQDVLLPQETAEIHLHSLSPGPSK

The assay addresses Full-length human PIM-1 (Homo sapiens, UniProt P11309). Conditions: read-out: PIM-1 IC50; ATP 200 μM, Aktide 25 μM, enzyme 1 nM.
Description: Biochemical Assay for Inhibitors of PIM-1 Kinase Activity
The inhibitory activity of putative kinase inhibitors and the potency of selected compounds were determined using a trans-phosphorylation assay.
Specific peptide or protein substrates are trans-phosphorylated by their specific ser-thr or tyr kinase in the presence of ATP traced with ^33P-γ-ATP, and in the presence of their own optimal buffer and cofactors.
At the end of the phosphorylation reaction, more than 98% unlabeled ATP and radioactive ATP is captured by an excess of the ion exchange dowex resin; the resin then settles down to the bottom of the reaction plate by gravity.
Supernatant is subsequently withdrawn and transferred into a counting plate, then evaluated by β-counting.
The buffer for PIM-1 assay was composed of HEPES 50 mM, at pH 7.5, with 10 mM MgCl2, 1 mM DTT, 3 μM NaVO3, and 0.2 mg/ml BSA
ATP concentration: 200 μM
Enzyme concentration: 1 nM
The test mix consisted of:
1) 3× Enzyme mix (done in Kinase Buffer 3×), 5 μL/well
2) 3× substrate and ATP mix (done in ddH2O), together with ^33P-γ-ATP, 5 μL/well
3) 3× test compounds (diluted into ddH2O-3% DMSO)-5 μL/well
a) for percent inhibition studies (HTS), individual dilution plates at 1 mM are diluted at a 3× concentration (30 μM) in ddH2O (3% DMSO=final concentration) using a Beckman NX automated pipetting platform. The same instrument is used for distributing the diluted mother plates into the test plates.
An automated station for serial dilutions (Biomek FX, Beckman) is used for producing 1:3 dilutions in 100% DMSO, from line A1 to A10, and for all the seven compounds in the column.
At the start of the run, the robot aspirates 5 μL of ATP mix, makes an air gap inside the tips (2 μL) and aspirates 2 μL of PIM mix. The following dispensation into the plates allows the kinase reaction to start upon 3 cycles of mixing, done by the robot itself.
The robot incubates the plates for 60 minutes at room temperature, and then stops the reaction by pipetting 70 μL of dowex resin suspension into the reaction mix. Three cycles of mixing are done immediately after the addition of the resin.
Another mixing cycle is performed after all the plates are stopped, this time using normal tips: the plates are then allowed to rest for about one hour in order to maximize ATP capture.
Data are analysed by an internally customized version of the SW package “Assay Explorer” that provides either % inhibition for primary assays or sigmoidal fittings of the ten-dilutions curves for IC50 determination in the secondary assays/hit confirmation routines.
As usually defined, the IC50 is the concentration that gives 50% inhibition. Turning to `CN1CCN(C(=O)CC2CNC(=O)c3cc(-c4cccc(F)c4)cn32)C(c2ccccc2)C1` (mixture of isomers) [Compound A127-M-B63], the IC50 came to 390 nM. For `CN1CCN(C(=O)CC2CNC(=O)c3cc(-c4cccc(C(F)(F)F)c4)cn32)C(c2ccccc2)C1` (mixture of isomers) [Compound A133-M-B63], the IC50 amounted to 2540 nM. Consider `CN1CCN(C(=O)CC2CNC(=O)c3cc(-c4ccnc(F)c4)cn32)C(c2ccccc2)C1` (mixture of isomers) [Compound A157-M-B63], for which the IC50 is 690 nM. In the case of `CN1CCN(C(=O)CC2CNC(=O)c3cc(-c4cc(F)ccc4F)cn32)C(c2ccccc2)C1` (mixture of isomers) [Compound A158-M-B63], the IC50 came to 400 nM. In the case of `O=C(C[C@H]1CNC(=O)c2cc(-c3cccc(F)c3)cn21)N[C@H](CO)C1CCCCC1` [A127-M-B61 isomer S], the IC50 is 20 nM.

Turning to `O=C(C[C@H]1CNC(=O)c2cc(-c3cccc(F)c3)cn21)N[C@H](CO)c1ccccc1` [A127-M-B62 isomer S], the IC50 is 90 nM. Regarding `O=C(C[C@@H]1CNC(=O)c2cc(-c3cccc(F)c3)cn21)N[C@H](CO)Cc1ccccc1` [A127-M-B64 isomer R], the IC50 amounted to 2910 nM. In the case of `NC[C@@H](NC(=O)C[C@H]1CNC(=O)c2cc(-c3cccc(F)c3)cn21)c1ccccc1` [A127-M-B65 isomer S], the IC50 is 10 nM.

In the case of `O=C(C[C@@H]1CNC(=O)c2cc(-c3cccc(C(F)(F)F)c3)cn21)N[C@H](CO)C1CCCCC1` [A133-M-B61 isomer R], the half-maximal inhibitory concentration (IC50) amounted to 5940 nM.

Consider `O=C(C[C@H]1CNC(=O)c2cc(-c3cccc(C(F)(F)F)c3)cn21)N[C@H](CO)C1CCCCC1` [A133-M-B61 isomer S], for which the IC50 stood at 70 nM.

On to `O=C(C[C@@H]1CNC(=O)c2cc(-c3cccc(C(F)(F)F)c3)cn21)N[C@H](CO)c1ccccc1` [A133-M-B62 isomer R], for which the IC50 was 4830 nM.

`O=C(C[C@H]1CNC(=O)c2cc(-c3cccc(C(F)(F)F)c3)cn21)N[C@H](CO)c1ccccc1` [A133-M-B62 isomer S]: the IC50 turned out to be 130 nM. As to `O=C(C[C@@H]1CNC(=O)c2cc(-c3cccc(C(F)(F)F)c3)cn21)N[C@H](CO)Cc1ccccc1` [A133-M-B64 isomer R], the IC50 came out at 2040 nM. Turning to `NC[C@@H](NC(=O)C[C@H]1CNC(=O)c2cc(-c3cccc(C(F)(F)F)c3)cn21)c1ccccc1` [A133-M-B65 isomer S], the half-inhibitory concentration (IC50) came out at 50 nM. In the case of `O=C(C[C@@H]1CNC(=O)c2cc(-c3ccnc(F)c3)cn21)N[C@H](CO)C1CCCCC1` [A157-M-B61 isomer R] it was 270 nM. For the molecule `O=C(C[C@@H]1CNC(=O)c2cc(-c3ccnc(F)c3)cn21)N[C@H](CO)c1ccccc1` [A157-M-B62 isomer R], the concentration for half-maximal inhibition (IC50) stood at 1140 nM. As to `O=C(C[C@@H]1CNC(=O)c2cc(-c3ccnc(F)c3)cn21)N[C@H](CO)Cc1ccccc1` [A157-M-B64 isomer R], the IC50 is 700 nM. In the case of `O=C(C[C@@H]1CNC(=O)c2cc(-c3cc(F)ccc3F)cn21)N[C@H](CO)C1CCCCC1` [A158-M-B61 isomer R] it was 860 nM; in that of `O=C(C[C@@H]1CNC(=O)c2cc(-c3cc(F)ccc3F)cn21)N[C@H](CO)c1ccccc1` [A158-M-B62 isomer R], 550 nM; in that of `NCC(NC(=O)CC1CNC(=O)c2cc(-c3cc(F)ccc3F)cn21)c1ccccc1` (stereo not drawn) [A158-M-B65 isomer S], 30 nM. On to `O=C(CC1CNC(=O)c2cc(-c3ccsc3)cn21)NCC1CCCCC1` (stereo not drawn) [Compound A33-M-B22], for which the IC50 was 460 nM. With `O=C(CC1CNC(=O)c2cc(-c3ccsc3)cn21)NCc1cccc(F)c1` (stereo not drawn) [Compound A33-M-B30], the IC50 turned out to be 580 nM. As for `O=C(CC1CNC(=O)c2cc(-c3cccc(F)c3)cn21)NCc1ccccc1` (stereo not drawn) [Compound A127-M-B14], the IC50 turned out to be 180 nM.

Take `O=C(CC1CNC(=O)c2cc(-c3cccc(F)c3)cn21)NCc1cccc(F)c1` (stereo not drawn) [Compound A127-M-B30]: the IC50 was found to be 190 nM. `CC(C)CCNC(=O)CC1CNC(=O)c2cc(-c3cccc(F)c3)cn21` (stereo not drawn) [Compound A127-M-B32]: the IC50 came to 610 nM.

Turning to `O=C(CC1CNC(=O)c2cc(-c3cccc(F)c3)cn21)NCc1ccncc1` (stereo not drawn) [Compound A127-M-B39], the IC50 worked out at 570 nM. For `O=C(CC1CNC(=O)c2cc(-c3ccccc3F)cn21)NCc1ccccc1` (stereo not drawn) [Compound A128-M-B14], the IC50 stood at 200 nM. In the case of `O=C(CC1CNC(=O)c2cc(-c3ccccc3F)cn21)NCC1CCCCC1` (stereo not drawn) [Compound A128-M-B22] it was 120 nM. In the case of `O=C(CC1CNC(=O)c2cc(-c3ccccc3F)cn21)NCc1cccc(F)c1` (stereo not drawn) [Compound A128-M-B30] it was 270 nM. With `CC(C)CCNC(=O)CC1CNC(=O)c2cc(-c3ccccc3F)cn21` (stereo not drawn) [Compound A128-M-B32], the half-inhibitory concentration (IC50) amounted to 700 nM.

As to `O=C(CC1CNC(=O)c2cc(-c3ccccc3F)cn21)NCc1ccncc1` (stereo not drawn) [Compound A128-M-B39], the IC50 is 540 nM.

Turning to `O=C(CC1CNC(=O)c2cc(-c3ccccc3F)cn21)NCc1ccco1` (stereo not drawn) [Compound A128-M-B40], the IC50 was found to be 250 nM. As to `O=C(CC1CNC(=O)c2cc(-c3ccc(F)cc3)cn21)NCC1CCCCC1` (stereo not drawn) [Compound A129-M-B22], the concentration for half-maximal inhibition (IC50) worked out at 130 nM. `O=C(CC1CNC(=O)c2cc(-c3ccc4c(c3)OCO4)cn21)NCC1CCCCC1` (stereo not drawn) [Compound A132-M-B22]: the IC50 is 360 nM. As for `O=C(CC1CNC(=O)c2cc(-c3cccc(C(F)(F)F)c3)cn21)NCc1ccccc1` (stereo not drawn) [Compound A133-M-B14], the half-inhibitory concentration (IC50) was 810 nM. Regarding `O=C(CC1CNC(=O)c2cc(-c3cccc(C(F)(F)F)c3)cn21)NCC1CCCCC1` (stereo not drawn) [Compound A133-M-B22], the IC50 is 380 nM.

Turning to `O=C(CC1CNC(=O)c2cc(-c3cccc(C(F)(F)F)c3)cn21)NCc1ccc(F)cc1` (stereo not drawn) [Compound A133-M-B30], the half-maximal inhibitory concentration (IC50) came to 610 nM. As to `O=C(CC1CNC(=O)c2cc(-c3cccc(OC(F)(F)F)c3)cn21)NCc1ccccc1` (stereo not drawn) [Compound A134-M-B14], the IC50 is 720 nM. Turning to `O=C(CC1CNC(=O)c2cc(-c3cccc(OC(F)(F)F)c3)cn21)NCc1cccc(F)c1` (stereo not drawn) [Compound A134-M-B30], the IC50 was found to be 890 nM. In the case of `O=C(CC1CNC(=O)c2cc(-c3ccc(F)c(F)c3)cn21)NCc1ccccc1` (stereo not drawn) [Compound A139-M-B14] it was 220 nM; in that of `O=C(CC1CNC(=O)c2cc(-c3ccc(F)c(F)c3)cn21)NCC1CCCCC1` (stereo not drawn) [Compound A139-M-B22], 90 nM. Regarding `O=C(CC1CNC(=O)c2cc(-c3ccc(F)c(F)c3)cn21)NCc1ccc(F)cc1` (stereo not drawn) [Compound A139-M-B30], the half-inhibitory concentration (IC50) amounted to 410 nM.

With `O=C(CC1CNC(=O)c2cc(-c3ccc(F)c(F)c3)cn21)NCc1ccncc1` (stereo not drawn) [Compound A139-M-B39], the IC50 came to 980 nM. `O=C(CC1CNC(=O)c2cc(-c3ccc(F)c(F)c3)cn21)NCc1ccco1` (stereo not drawn) [Compound A139-M-B40]: the IC50 stood at 130 nM. Turning to `COC(=O)c1cccc(-c2cc3n(c2)C(CC(=O)NCc2ccccc2)CNC3=O)c1` (stereo not drawn) [Compound A142-M-B14], the half-inhibitory concentration (IC50) was determined as 4830 nM.

Take `COC(=O)c1cccc(-c2cc3n(c2)C(CC(=O)NCc2cccc(F)c2)CNC3=O)c1` (stereo not drawn) [Compound A142-M-B30]: the IC50 came to 2520 nM. Take `O=C(CC1CNC(=O)c2cc(-c3cn[nH]c3)cn21)NCc1ccccc1` (stereo not drawn) [Compound A144-M-B14]: the IC50 was at least 10000 nM.

For `O=C(CC1CNC(=O)c2cc(-c3cn[nH]c3)cn21)NCC1CCCCC1` (stereo not drawn) [Compound A144-M-B22], the IC50 was 480 nM. On to `O=C(CC1CNC(=O)c2cc(-c3cn[nH]c3)cn21)NCc1ccc(F)cc1` (stereo not drawn) [Compound A144-M-B30], for which the IC50 was determined as 1100 nM.

Turning to `O=C(CC1CNC(=O)c2cc(-c3cccc(Cl)c3)cn21)NCc1ccccc1` (stereo not drawn) [Compound A150-M-B14], the IC50 was 140 nM. On to `O=C(CC1CNC(=O)c2cc(-c3cccc(Cl)c3)cn21)NC1CCCCC1` (stereo not drawn) [Compound A150-M-B24], for which the concentration for half-maximal inhibition (IC50) was found to be 210 nM.

For `CCCNC(=O)CC1CNC(=O)c2cc(-c3cccc(Cl)c3)cn21` (stereo not drawn) [Compound A150-M-B25], the IC50 worked out at 450 nM. For the molecule `O=C(CC1CNC(=O)c2cc(-c3cccc(Cl)c3)cn21)NC1CCCC1` (stereo not drawn) [Compound A150-M-B26], the IC50 was 240 nM. Regarding `CC(C)CCNC(=O)CC1CNC(=O)c2cc(-c3cccc(Cl)c3)cn21` (stereo not drawn) [Compound A150-M-B32], the IC50 worked out at 230 nM. In the case of `Cc1ccccc1NC(=O)CC1CNC(=O)c2cc(-c3cccc(Cl)c3)cn21` (stereo not drawn) [Compound A150-M-B36] it was 1390 nM. In the case of `O=C(CC1CNC(=O)c2cc(-c3cccc(Cl)c3)cn21)NCCN1CCOCC1` (stereo not drawn) [Compound A150-M-B38] it was 1060 nM; in that of `O=C(CC1CNC(=O)c2cc(-c3cccc(Cl)c3)cn21)NCc1ccncc1` (stereo not drawn) [Compound A150-M-B39], 220 nM; in that of `COCCCNC(=O)CC1CNC(=O)c2cc(-c3cccc(Cl)c3)cn21` (stereo not drawn) [Compound A150-M-B42], 590 nM. As for `CC(C)(C)NC(=O)CC1CNC(=O)c2cc(-c3cccc(Cl)c3)cn21` (stereo not drawn) [Compound A150-M-B43], the IC50 is 790 nM. With `O=C1NCC(CC(=O)N2CCCCCC2)n2cc(-c3cccc(Cl)c3)cc21` (stereo not drawn) [Compound A150-M-B45], the IC50 was found to be 580 nM. `O=C(CC1CNC(=O)c2cc(-c3cccc(Cl)c3)cn21)NCC1CC1` (stereo not drawn) [Compound A150-M-B48]: the IC50 came to 120 nM. Turning to `C=CCN1CCN(C(=O)CC2CNC(=O)c3cc(-c4cccc(Cl)c4)cn32)CC1` (stereo not drawn) [Compound A150-M-B49], the IC50 worked out at 230 nM. In the case of `O=C(CC1CNC(=O)c2cc(-c3cccc(Cl)c3)cn21)Nc1ccccc1` (stereo not drawn) [Compound A150-M-B52] it was 430 nM; in that of `O=C(CC1CNC(=O)c2cc(-c3ccc(F)cc3F)cn21)NCc1ccccc1` (stereo not drawn) [Compound A151-M-B14], 100 nM. `CC(C)CCNC(=O)CC1CNC(=O)c2cc(-c3ccc(F)cc3F)cn21` (stereo not drawn) [Compound A151-M-B32]: the IC50 is 490 nM. In the case of `O=C(CC1CNC(=O)c2cc(-c3ccc(F)cc3F)cn21)NCc1ccncc1` (stereo not drawn) [Compound A151-M-B39], the IC50 was 4110 nM.
